Where a SMILES comes first, the peptide text is derived from it. Bridges are numbered along the chain shown (N, C = ends). [ ]: non-standard residue; d: D form. R8 = C=CCCCCCC[C@@](C)(N)C(=O)O; R5 = C=CCCC[C@@](C)(N)C(=O)O; S5 = C=CCCC[C@](C)(N)C(=O)O
Assay: Circular dichroism spectroscopy, α-helical content
Assay type: physicochemical
Conditions: CD, 10 mM phosphate buffer pH 7.5, 50 μM peptide, 25°C, calculated from ellipticity at 222 nm; average of three measurements
Procedure: The α-helical stabilization appeared to be higher for the i, i + 7 staples overall.
The circular dichroism spectra were acquired on a Chirascan spectropolarimeter. The samples were prepared in 10 mM phosphate buffer, pH 7.5, at a peptide concentration of 50 μM. Data were recorded at 25°C by step scan from 180 nm to 260 nm in a 0.5-mm-pathlength quartz cell using 0.2-nm-wavelength increments, a 1-nm bandwidth, and a response time of 1 s. Each spectrum was an average of three measurements and was subtracted from the buffer baseline. The data were converted to per residue molar ellipticity units (θ; in degrees · square centimeters · decimoles^−1 · number of residues^−1) and smoothed using Igor Pro software. Percent helicity was calculated as follows: (100 × CD222)/(C × N × {40,000 × [1 − (2.5/N)]}), where CD222 is the molar ellipticity (θ) at 222 nm (in millidegrees), N is the number of amino acids in the peptide, and C is the peptide molar concentration (in moles per liter).
With CC[C@H](C)[C@H](NC(=O)[C@H](CO)NC(=O)[C@H](CCC(=O)O)NC(=O)[C@H](CC(C)C)NC(=O)[C@H](Cc1ccccc1)NC(=O)[C@]1(C)CCCC=CCCC[C@@](C)(NC(=O)[C@H](CC(N)=O)NC(=O)[C@H](CC(N)=O)NC(=O)[C@H](C)NC(=O)[C@H](CC(=O)O)NC(=O)[C@H](CCC(=O)O)NC(C)=O)C(=O)N[C@@H](C)C(=O)N[C@@H]([C@@H](C)O)C(=O)N1)C(=O)N[C@@H](CCCCN)C(=O)NCC(=O)N[C@@H](CCCCN)C(=O)N[C@@H](Cc1ccccc1)C(=O)N[C@@H](C)C(=O)N[C@@H](CO)C(N)=O [1b] (Ac-EDANN[R5]AT[S5]FLESIKGKFAS-NH2; staple 6-9) the “% helicity” value was 11.5%. With CC[C@H](C)[C@@H]1NC(=O)[C@H](CO)NC(=O)[C@@](C)(NC(=O)[C@H](CC(C)C)NC(=O)[C@H](Cc2ccccc2)NC(=O)[C@H](CCCCN)NC(=O)[C@@H](NC(=O)[C@H](C)NC(=O)[C@H](CCCCN)NC(=O)[C@H](CC(N)=O)NC(=O)[C@H](CC(N)=O)NC(=O)[C@H](C)NC(=O)[C@H](CC(=O)O)NC(=O)[C@H](CCC(=O)O)NC(=O)CNC(=O)[C@H](Cc2c[nH]cn2)NC(=O)[C@H](Cc2ccccc2)NC(=O)[C@H](CCC(=O)O)NC(C)=O)[C@@H](C)O)CCCC=CCCCC2(CCCC=CCCC[C@@](C)(C(=O)N[C@@H](CO)C(N)=O)NC(=O)[C@H](Cc3ccccc3)NC(=O)[C@H](CCCCN)NC2=O)NC(=O)[C@H](CCCCN)NC1=O (stereo partly shown) [2e1f] the “% helicity” value was 27.0%. For CC[C@H](C)[C@H](NC(=O)[C@H](CO)NC(=O)[C@H](CCC(=O)O)NC(=O)[C@H](CC(C)C)NC(=O)[C@H](Cc1ccccc1)NC(=O)[C@H](CCCCN)NC(=O)[C@@H](NC(=O)[C@H](C)NC(=O)[C@H](CCCCN)NC(=O)[C@]1(C)CCCC=CCCC[C@@](C)(NC(=O)[C@H](CCC(=O)O)NC(=O)CNC(=O)[C@H](Cc2c[nH]cn2)NC(=O)[C@H](Cc2ccccc2)NC(=O)[C@H](CCC(=O)O)NC(C)=O)C(=O)N[C@@H](C)C(=O)N[C@@H](CC(N)=O)C(=O)N1)[C@@H](C)O)C(=O)N[C@@H](CCCCN)C(=O)NCC(=O)N[C@@H](CCCCN)C(=O)N[C@@H](Cc1ccccc1)C(=O)N[C@@H](C)C(=O)N[C@@H](CO)C(N)=O [4b] (Ac-EFHGE[R5]AN[S5]KATKFLESIKGKFAS-NH2; staple 6-9), the “% helicity” value was 21.7%. For CC[C@H](C)[C@H](NC(=O)[C@H](CO)NC(=O)[C@H](CCC(=O)O)NC(=O)[C@H](CC(C)C)NC(=O)[C@H](Cc1ccccc1)NC(=O)[C@H](CCCCN)NC(=O)[C@@H](NC(=O)[C@H](C)NC(=O)[C@]1(C)CCCC=CCCC[C@](C)(NC(=O)[C@H](CCC(=O)O)NC(=O)CNC(=O)[C@H](Cc2c[nH]cn2)NC(=O)[C@H](Cc2ccccc2)NC(=O)[C@H](CCC(=O)O)NC(C)=O)C(=O)N[C@@H](C)C(=O)N[C@@H](CC(N)=O)C(=O)N[C@@H](CC(N)=O)C(=O)N1)[C@@H](C)O)C(=O)N[C@@H](CCCCN)C(=O)NCC(=O)N[C@@H](CCCCN)C(=O)N[C@@H](Cc1ccccc1)C(=O)N[C@@H](C)C(=O)N[C@@H](CO)C(N)=O [4d] (Ac-EFHGE[S5]ANN[S5]ATKFLESIKGKFAS-NH2; staple 6-10), the “% helicity” value was 28.0%. For CC[C@H](C)[C@H](NC(=O)[C@]1(C)CCCCCCC=CCCCC2(CCCC=CCCCCCC[C@@](C)(NC(=O)[C@H](Cc3ccccc3)NC(=O)[C@H](CCC(=O)O)NC(C)=O)C(=O)NCC(=O)N[C@@H](CCC(=O)O)C(=O)N[C@@H](CC(=O)O)C(=O)N[C@@H](C)C(=O)N[C@@H](CC(N)=O)C(=O)N[C@@H](CC(N)=O)C(=O)N2)C(=O)N[C@@H](C)C(=O)N[C@@H]([C@@H](C)O)C(=O)N[C@@H](CCCCN)C(=O)N[C@@H](Cc2ccccc2)C(=O)N[C@@H](CC(C)C)C(=O)N[C@@H](CCC(=O)O)C(=O)N1)C(=O)N[C@@H](CCCCN)C(=O)NCC(=O)N[C@@H](CCCCN)C(=O)N[C@@H](Cc1ccccc1)C(=O)N[C@@H](C)C(=O)N[C@@H](CO)C(N)=O (stereo partly shown) [4e3b], the “% helicity” value was 51.1%. For CC[C@H](C)[C@H](NC(=O)[C@H](CO)NC(=O)[C@H](CCC(=O)O)NC(=O)[C@H](CC(C)C)NC(=O)[C@H](Cc1ccccc1)NC(=O)[C@H](CCCCN)NC(=O)[C@@H](NC(=O)[C@H](C)NC(=O)[C@]1(C)CCCC=CCCCCCC[C@@](C)(NC(=O)[C@H](Cc2ccccc2)NC(=O)[C@H](CCC(=O)O)NC(C)=O)C(=O)NCC(=O)N[C@@H](CCC(=O)O)C(=O)N[C@@H](CC(=O)O)C(=O)N[C@@H](C)C(=O)N[C@@H](CC(N)=O)C(=O)N[C@@H](CC(N)=O)C(=O)N1)[C@@H](C)O)C(=O)N[C@@H](CCCCN)C(=O)NCC(=O)N[C@@H](CCCCN)C(=O)N[C@@H](Cc1ccccc1)C(=O)N[C@@H](C)C(=O)N[C@@H](CO)C(N)=O [4e] (Ac-EF[R8]GEDANN[S5]ATKFLESIKGKFAS-NH2; staple 3-10), the “% helicity” value was 28.8%. In the case of CC[C@H](C)[C@H](NC(=O)[C@H](CO)NC(=O)[C@H](CCC(=O)O)NC(=O)[C@H](CC(C)C)NC(=O)[C@H](Cc1ccccc1)NC(=O)[C@]1(C)CCCC=CCCCCCC[C@@](C)(NC(=O)[C@H](CCC(=O)O)NC(=O)CNC(=O)[C@H](Cc2c[nH]cn2)NC(=O)[C@H](Cc2ccccc2)NC(=O)[C@H](CCC(=O)O)NC(C)=O)C(=O)N[C@@H](C)C(=O)N[C@@H](CC(N)=O)C(=O)N[C@@H](CC(N)=O)C(=O)N[C@@H](CCCCN)C(=O)N[C@@H](C)C(=O)N[C@@H]([C@@H](C)O)C(=O)N1)C(=O)N[C@@H](CCCCN)C(=O)NCC(=O)N[C@@H](CCCCN)C(=O)N[C@@H](Cc1ccccc1)C(=O)N[C@@H](C)C(=O)N[C@@H](CO)C(N)=O [4f] (Ac-EFHGE[R8]ANNKAT[S5]FLESIKGKFAS-NH2; staple 6-13), the “% helicity” value is reported as 17.2%. With CC[C@H](C)[C@H](NC(=O)[C@]1(C)CCCC=CCCCCCC[C@@](C)(NC(=O)[C@H](CC(N)=O)NC(=O)[C@H](CC(N)=O)NC(=O)[C@H](C)NC(=O)[C@H](CC(=O)O)NC(=O)[C@H](CCC(=O)O)NC(=O)CNC(=O)[C@H](Cc2c[nH]cn2)NC(=O)[C@H](Cc2ccccc2)NC(=O)[C@H](CCC(=O)O)NC(C)=O)C(=O)N[C@@H](C)C(=O)N[C@@H]([C@@H](C)O)C(=O)N[C@@H](CCCCN)C(=O)N[C@@H](Cc2ccccc2)C(=O)N[C@@H](CC(C)C)C(=O)N[C@@H](CCC(=O)O)C(=O)N1)C(=O)N[C@@H](CCCCN)C(=O)NCC(=O)N[C@@H](CCCCN)C(=O)N[C@@H](Cc1ccccc1)C(=O)N[C@@H](C)C(=O)N[C@@H](CO)C(N)=O [4g] the “% helicity” value was 47.6%.

Assay: circular dichroism
Conditions: 10 mM phosphate; pH 7.5; 25 °C; 50 uM
In the case of CC[C@H](C)[C@H](NC(=O)[C@H](CO)NC(=O)[C@H](CCC(=O)O)NC(=O)[C@H](CC(C)C)NC(=O)[C@H](Cc1ccccc1)NC(=O)[C@H](CCCCN)NC(=O)[C@@H](NC(=O)[C@H](C)NC(=O)[C@H](CCCCN)NC(=O)[C@H](CC(N)=O)NC(=O)[C@H](CC(N)=O)NC(=O)[C@H](C)NC(=O)[C@H](CC(=O)O)NC(=O)[C@H](CCC(=O)O)NC(C)=O)[C@@H](C)O)C(=O)N[C@@H](CCCCN)C(=O)N[C@@]1(C)CCCC=CCCC[C@@](C)(C(N)=O)NC(=O)[C@H](C)NC(=O)[C@H](Cc2ccccc2)NC(=O)[C@H](CCCCN)NC1=O (Ac-EDANNKATKFLESIK[S5]KFA[S5]-NH2; staple 16-20), the helicity is reported as 24.1%. With CC[C@H](C)[C@@H]1NC(=O)[C@](C)(NC(=O)[C@H](CCC(=O)O)NC(=O)[C@H](CC(C)C)NC(=O)[C@H](Cc2ccccc2)NC(=O)[C@H](CCCCN)NC(=O)[C@@H](NC(=O)[C@H](C)NC(=O)[C@H](CCCCN)NC(=O)[C@H](CC(N)=O)NC(=O)[C@H](CC(N)=O)NC(=O)[C@H](C)NC(=O)[C@H](CC(=O)O)NC(=O)[C@H](CCC(=O)O)NC(C)=O)[C@@H](C)O)CCCC=CCCC[C@@](C)(C(=O)N[C@@H](CCCCN)C(=O)N[C@@H](Cc2ccccc2)C(=O)N[C@@H](C)C(=O)N[C@@H](CO)C(N)=O)NC(=O)[C@H](CCCCN)NC1=O (Ac-EDANNKATKFLE[R5]IK[S5]KFAS-NH2; staple 13-16) the helicity was 30.7%. In the case of CC[C@H](C)[C@@H]1NC(=O)[C@@](C)(NC(=O)[C@H](CCC(=O)O)NC(=O)[C@H](CC(C)C)NC(=O)[C@H](Cc2ccccc2)NC(=O)[C@H](CCCCN)NC(=O)[C@@H](NC(=O)[C@H](C)NC(=O)[C@H](CCCCN)NC(=O)[C@H](CC(N)=O)NC(=O)[C@H](CC(N)=O)NC(=O)[C@H](C)NC(=O)[C@H](CC(=O)O)NC(=O)[C@H](CCC(=O)O)NC(C)=O)[C@@H](C)O)CCCC=CCCC[C@@](C)(C(=O)N[C@@H](Cc2ccccc2)C(=O)N[C@@H](C)C(=O)N[C@@H](CO)C(N)=O)NC(=O)CNC(=O)[C@H](CCCCN)NC1=O (Ac-EDANNKATKFLE[S5]IKG[S5]FAS-NH2; staple 13-17), the helicity is reported as 46.5%. For CC[C@H](C)[C@@H]1NC(=O)[C@H](CO)NC(=O)[C@](C)(NC(=O)[C@H](CC(C)C)NC(=O)[C@H](Cc2ccccc2)NC(=O)[C@H](CCCCN)NC(=O)[C@@H](NC(=O)[C@H](C)NC(=O)[C@H](CCCCN)NC(=O)[C@H](CC(N)=O)NC(=O)[C@H](CC(N)=O)NC(=O)[C@H](C)NC(=O)[C@H](CC(=O)O)NC(=O)[C@H](CCC(=O)O)NC(C)=O)[C@@H](C)O)CCCCCCC=CCCC[C@@](C)(C(=O)N[C@@H](CO)C(N)=O)NC(=O)[C@H](Cc2ccccc2)NC(=O)[C@H](CCCCN)NC(=O)CNC(=O)[C@H](CCCCN)NC1=O (Ac-EDANNKATKFL[R8]SIKGKF[S5]S-NH2; staple 12-19), the helicity was 35.3%. With CC[C@H](C)[C@H](NC(=O)[C@H](CO)NC(=O)[C@]1(C)CCCC=CCCC[C@@](C)(NC(=O)[C@@H](NC(=O)[C@H](C)NC(=O)[C@H](CCCCN)NC(=O)[C@H](CC(N)=O)NC(=O)[C@H](CC(N)=O)NC(=O)[C@H](C)NC(=O)[C@H](CC(=O)O)NC(=O)[C@H](CCC(=O)O)NC(C)=O)[C@@H](C)O)C(=O)N[C@@H](Cc2ccccc2)C(=O)N[C@@H](CC(C)C)C(=O)N1)C(=O)N[C@@H](CCCCN)C(=O)NCC(=O)N[C@@H](CCCCN)C(=O)N[C@@H](Cc1ccccc1)C(=O)N[C@@H](C)C(=O)N[C@@H](CO)C(N)=O (Ac-EDANNKAT[R5]FL[S5]SIKGKFAS-NH2; staple 9-12) the helicity was 58.9%.

Reference: paper PMC7508628, “Targeting the Respiratory Syncytial Virus N^0-P Complex with Constrained α-Helical Peptides in Cells and Mice” (Antimicrobial Agents and Chemotherapy, 2020)
